Source: patent US20040024024A1, “Aromatic sulfone hydroxamates and their use as protease inhibitors” (priority 2001, published 2004)

What was measured:
Human recombinant MMP-2 = biological target: T1, Human recombinant MMP-2 (Homo sapiens, UniProt P08253); experiment: In vitro MMP inhibition, Ki determination (fluorogenic substrate II); format: biochemical
T1 construct: made in house; host or cells: MMP-2-transfected p2AHT2 cells
T1 sequence (P08253 110-660): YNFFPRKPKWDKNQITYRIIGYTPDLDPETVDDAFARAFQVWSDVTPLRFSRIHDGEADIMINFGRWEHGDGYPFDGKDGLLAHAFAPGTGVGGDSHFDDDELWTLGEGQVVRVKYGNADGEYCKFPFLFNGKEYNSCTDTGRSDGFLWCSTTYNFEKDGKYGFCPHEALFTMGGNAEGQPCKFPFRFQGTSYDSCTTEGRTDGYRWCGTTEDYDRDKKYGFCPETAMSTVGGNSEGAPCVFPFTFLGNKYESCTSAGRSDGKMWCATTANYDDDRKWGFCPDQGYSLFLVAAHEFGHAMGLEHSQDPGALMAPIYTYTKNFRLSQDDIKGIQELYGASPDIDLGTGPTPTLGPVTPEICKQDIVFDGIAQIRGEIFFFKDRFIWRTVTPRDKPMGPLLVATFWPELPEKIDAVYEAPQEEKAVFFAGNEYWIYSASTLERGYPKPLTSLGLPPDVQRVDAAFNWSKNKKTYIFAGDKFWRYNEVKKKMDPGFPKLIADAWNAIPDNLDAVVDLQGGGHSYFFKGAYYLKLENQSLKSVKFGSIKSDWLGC

Human recombinant MMP-14 = biological target: T2, Human recombinant MMP-14 (Homo sapiens, UniProt P50281); experiment: as above; format: biochemical
T2 construct: The catalytic domain enzyme was expressed in E. coli inclusion bodies, solubilized in urea; made in house
In short: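 Refolded E. coli-expressed MMP-14 catalytic domain, APMA- or trypsin-activated, incubated 1 h at room temperature with 4 μM fluorogenic substrate II in pH 7.5 Tris/NaCl/CaCl2 buffer; fluorescence read at 330/420 nm. Ki from Morrison-equation non-linear regression, substrate at or below Km, uncorrected for substrate.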

[1] = substrate (II) 4 μM, 1 hr room temperature, apparent Ki, values in parenthesis

Ki (Human recombinant MMP-2; value in parenthesis) [nM]	Ki (Human recombinant MMP-14; value in parenthesis) [nM]	Ki (Human recombinant MMP-2; value in parentheses) [nM]	Ki (Human recombinant MMP-14; value in parentheses) [nM]	also measured	Compound
–	–	–	–	Ki (Human recombinant MMP-2; [1]): 225 nM; Ki (Human recombinant MMP-14; [1]): > 10000 nM	COCCN1CCC(C(=O)NO)(S(=O)(=O)c2ccc(OCCc3cccc(-c4ccccc4)c3)cc2)CC1 [Example 45]
–	–	–	–	Ki (Human recombinant MMP-2; [1]): 1130 nM; Ki (Human recombinant MMP-14; [1]): > 10000 nM	COCCN1CCC(C(=O)NO)(S(=O)(=O)c2ccc(OCCCc3cccc(-c4ccc(Cl)cc4)c3)cc2)CC1 [Example 50]
–	–	–	–	Ki (Human recombinant MMP-2; [1]): 543 nM; Ki (Human recombinant MMP-14; [1]): > 10000 nM	COCCN1CCC(C(=O)NO)(S(=O)(=O)c2ccc(OCCCc3cccc(-c4ccc(F)c(F)c4)c3)cc2)CC1 [Example 52]
676	> 10000	–	–	–	O=C(NO)C1(S(=O)(=O)c2ccc(OCCCc3nc(-c4ccc(OC(F)(F)F)cc4)no3)cc2)CCN(Cc2ccccc2)CC1 [Example 93]
8100	> 10000	–	–	–	CC(C)c1ccc(-c2cccc(CCOc3ccc(S(=O)(=O)C4(C(=O)NO)CCOCC4)cc3)c2)cc1 [Example 109]
112	> 10000	–	–	–	O=C(NO)C1(S(=O)(=O)c2ccc(OCCc3cccc(-c4cc(F)cc(F)c4)c3)cc2)CCOCC1 [Example 110]
769	> 10000	–	–	–	O=C(NO)C1(S(=O)(=O)c2ccc(OCCc3cccc(-c4cccc(F)c4)c3)cc2)CCOCC1 [Example 111]
3970	> 10000	–	–	–	O=C(NO)C1(S(=O)(=O)c2ccc(OCCc3cccc(-c4ccc(OC(F)(F)F)cc4)c3)cc2)CCOCC1 [Example 112]
1500	> 10000	–	–	–	O=C(NO)C1(S(=O)(=O)c2ccc(OCCc3cccc(-c4ccccc4Cl)c3)cc2)CCOCC1 [Example 114]
1250	> 10000	–	–	–	Cc1ccccc1-c1cccc(CCOc2ccc(S(=O)(=O)C3(C(=O)NO)CCOCC3)cc2)c1 [Example 116]
3640	> 10000	–	–	–	Cc1ccc(-c2cccc(CCOc3ccc(S(=O)(=O)C4(C(=O)NO)CCOCC4)cc3)c2)cc1C [Example 117]
2650	> 10000	–	–	–	Cc1cc(-c2cccc(CCOc3ccc(S(=O)(=O)C4(C(=O)NO)CCOCC4)cc3)c2)ccc1Cl [Example 118]
1680	> 10000	–	–	–	COc1ccc(-c2cccc(CCOc3ccc(S(=O)(=O)C4(C(=O)NO)CCOCC4)cc3)c2)cc1C [Example 119]
4620	> 10000	–	–	–	O=C(NO)C1(S(=O)(=O)c2ccc(OCCc3cccc(-c4ccc(Cl)c(Cl)c4)c3)cc2)CCOCC1 [Example 121]
5730	> 10000	–	–	–	O=C(NO)C1(S(=O)(=O)c2ccc(OCCc3cccc(-c4ccc(Cl)cc4Cl)c3)cc2)CCOCC1 [Example 124]
6360	> 10000	–	–	–	O=C(NO)C1(S(=O)(=O)c2ccc(OCCc3cccc(-c4cc(Cl)cc(Cl)c4)c3)cc2)CCOCC1 [Example 126]
1130	> 10000	–	–	–	COCCN1CCC(C(=O)NO)(S(=O)(=O)c2ccc(OCCCc3nc(-c4ccc(CC(C)C)cc4C)no3)cc2)CC1 [Example 128]
50	> 10000	–	–	–	NC(=O)c1cccc(-c2noc(CCCOc3ccc(S(=O)(=O)C4(C(=O)NO)CCN(C5CC5)CC4)cc3)n2)c1 [Example 129]
58.5	9510	–	–	–	COCCN1CCC(C(=O)NO)(S(=O)(=O)c2ccc(OCCCc3nc(-c4ccc(Br)cc4C)no3)cc2)CC1 [Example 135]
36.6	> 10000	–	–	–	O=C(NO)C1(S(=O)(=O)c2ccc(OCCCc3nc(C4CCCCC4)no3)cc2)CCN(C2CC2)CC1 [Example 137]
8090	> 10000	–	–	–	Cc1cc(-c2cccc(CCCOc3ccc(S(=O)(=O)C4(C(=O)NO)CCOCC4)cc3)c2)ccc1Cl [Example 166]
5500	> 10000	–	–	–	Cc1cc(-c2cccc(CCCOc3ccc(S(=O)(=O)C4(C(=O)NO)CCOCC4)cc3)c2)ccc1F [Example 168]
5360	> 10000	–	–	–	O=C(NO)C1(S(=O)(=O)c2ccc(OCCCc3cccc(-c4ccc(Cl)c(Cl)c4)c3)cc2)CCOCC1 [Example 169]

Ki (Human recombinant MMP-2; value in parenthesis) [nM]	Ki (Human recombinant MMP-14; value in parenthesis) [nM]	Ki (Human recombinant MMP-2; value in parentheses) [nM]	Ki (Human recombinant MMP-14; value in parentheses) [nM]	also measured	Compound
1410	> 10000	–	–	–	O=C(NO)C1(S(=O)(=O)c2ccc(OCCCc3cccc(-c4ccc(F)c(F)c4)c3)cc2)CCOCC1 [Example 170]
3190	> 10000	–	–	–	O=C(NO)C1(S(=O)(=O)c2ccc(OCCCc3cccc(-c4ccc(Cl)cc4Cl)c3)cc2)CCOCC1 [Example 171]
> 10000	> 10000	–	–	–	O=C(NO)C1(S(=O)(=O)c2ccc(OCCCc3cccc(-c4cc(Cl)cc(Cl)c4)c3)cc2)CCOCC1 [Example 172]
643	> 10000	–	–	–	CCCCc1ccc(-c2noc(CCCOc3ccc(S(=O)(=O)C4(C(=O)NO)CCOCC4)cc3)n2)c(C)c1 [Example 183]
116	> 10000	–	–	–	COCCN1CCC(C(=O)NO)(S(=O)(=O)c2ccc(OCCCc3nc(-c4ccc(C5(c6ccccc6)CC5)cc4)no3)cc2)CC1 [Example 185]
228	> 10000	–	–	–	COCCN1CCC(C(=O)NO)(S(=O)(=O)c2ccc(OCCCc3nc(-c4cccc5ccccc45)no3)cc2)CC1 [Example 199]
–	–	434	> 10000	–	O=C(NO)C1(S(=O)(=O)c2ccc(OCCCc3ccc(F)c(-c4ccccc4)c3)cc2)CCOCC1 [Example 504]
–	–	2.56	962	–	CCCC(=O)CCCOc1ccc(S(=O)(=O)C2(C(=O)NO)CCOCC2)cc1 [Example 505]
–	–	1.92	681	–	CCCCC(=O)CCCOc1ccc(S(=O)(=O)C2(C(=O)NO)CCOCC2)cc1 [Example 506]
–	–	0.84	444	–	CCCCCCCOc1ccc(S(=O)(=O)C2(C(=O)NO)CCOCC2)cc1 [Example 507]
–	–	22.8	2790	–	COCCN1CCC(C(=O)NO)(S(=O)(=O)c2ccc(OCCCc3cncc(-c4ccccc4)c3)cc2)CC1 [Example 508]
–	–	89.3	4160	–	COCCN1CCC(C(=O)NO)(S(=O)(=O)c2ccc(OCCCc3cccc(-c4cccnc4)c3)cc2)CC1 [Example 509]
–	–	7.85	2180	–	COCCN1CCC(C(=O)NO)(S(=O)(=O)c2ccc(OCCCc3cccc(-c4cccs4)c3)cc2)CC1 [Example 510]
–	–	526	> 10000	–	COCCN1CCC(C(=O)NO)(S(=O)(=O)c2ccc(OCCCc3cccc(-c4cccc(F)c4)c3)cc2)CC1 [Example 511]
–	–	758	> 10000	–	COCCN1CCC(C(=O)NO)(S(=O)(=O)c2ccc(OCCCc3cccc(-c4ccccc4F)c3)cc2)CC1 [Example 512]
–	–	880	9270	–	COCCN1CCC(C(=O)NO)(S(=O)(=O)c2ccc(OCCCc3cccc(-c4ccc(F)cc4F)c3)cc2)CC1 [Example 513]
–	–	293	4080	–	COCCN1CCC(C(=O)NO)(S(=O)(=O)c2ccc(OCCCc3cccc(-c4ccc(C#N)cc4)c3)cc2)CC1 [Example 514]
–	–	1680	> 10000	–	CCN1CCC(C(=O)NO)(S(=O)(=O)c2ccc(OCCCc3cccc(-c4ccc(Cl)cc4)c3)cc2)CC1 [Example 526]
–	–	21.3	1360	–	Cc1ccc(NC(=O)CCCOc2ccc(S(=O)(=O)C3(C(=O)NO)CCOCC3)cc2)cc1I [Example 527]
–	–	83.5	5700	–	CCC(=O)c1cccc(CCCOc2ccc(S(=O)(=O)C3(C(=O)NO)CCOCC3)cc2)c1 [Example 528]
–	–	3550	> 10000	–	O=C(NO)C1(S(=O)(=O)c2ccc(OCCCc3cccc(-c4ccc(O)cc4)c3)cc2)CCOCC1 [Example 529]
–	–	699	> 10000	–	O=C(NO)C1(S(=O)(=O)c2ccc(OCCCc3cccc(-c4cccc(O)c4)c3)cc2)CCOCC1 [Example 530]
–	–	337	> 10000	–	O=C(NO)C1(S(=O)(=O)c2ccc(OCCc3ccc(-c4ccc(O)cc4)cc3)cc2)CCOCC1 [Example 531]
